Patent publication US20190134005A1 (BioMarin Pharmaceutical Inc., priority 2016, published 2019)
Where two headings read alike, the source gives them in different places.

Target: T1, human CGT (Homo sapiens, UniProt Q16880)
T1 sequence (Q16880 21-541): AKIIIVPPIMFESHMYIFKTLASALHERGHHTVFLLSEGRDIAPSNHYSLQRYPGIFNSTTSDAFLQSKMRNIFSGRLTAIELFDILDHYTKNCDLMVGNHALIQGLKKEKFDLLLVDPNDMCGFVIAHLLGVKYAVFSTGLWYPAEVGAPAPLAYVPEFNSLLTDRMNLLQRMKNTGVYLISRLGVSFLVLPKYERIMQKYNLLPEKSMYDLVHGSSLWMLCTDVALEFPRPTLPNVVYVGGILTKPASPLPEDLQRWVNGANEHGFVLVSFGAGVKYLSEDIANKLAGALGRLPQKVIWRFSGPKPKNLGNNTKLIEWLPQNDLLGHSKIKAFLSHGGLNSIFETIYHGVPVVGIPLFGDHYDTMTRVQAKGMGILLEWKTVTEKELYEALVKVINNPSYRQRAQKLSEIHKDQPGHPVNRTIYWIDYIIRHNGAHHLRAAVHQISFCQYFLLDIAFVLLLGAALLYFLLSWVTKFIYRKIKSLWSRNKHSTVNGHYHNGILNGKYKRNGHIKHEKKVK
Experiment: Assay 1: CGT Enzymatic Assay (RapidFire/MS/MS, 0.01% Tween 80)
Format: biochemical
Conditions: Table 1, Compounds of Formula (I) and Formula (II), CGT enzymatic assay, read-out: IC50

[1] = C6-NBD-dihydro-galactosylceramide readout

SMILES	IC50 [1] [nM]	IC50 [nM]
CCC[C@]1(C)N(c2ccc(C#N)cc2)C(=O)N(c2ccc(C#N)cc2)C1(O)c1cccc(OC(F)(F)F)c1 (stereo partly drawn) [Example 320-2, 4,4′-((5S)-4-hydroxy-5-methyl-2-oxo-5-propyl-4-(3-(trifluoromethoxy)phenyl)imidazolidine-1,3-diyl)dibenzonitrile]	< 1000	
O=C1N(c2ccc(Cl)cc2)[C@@H](c2ccccc2)[C@@](O)(CO)N1c1ccc(Cl)cc1 [Example 218-2, (4R,5S)-1,3-bis(4-chlorophenyl)-4-hydroxy-4-(hydroxymethyl)-5-phenylimidazolidin-2-one]		10000 to 50000
O=C1N(c2ccc(Br)cc2)[C@@H](C2CC2)C(O)(c2ccccc2)N1c1ccc(Br)cc1 (stereo partly drawn) [Compound 115-1, (5S)-1,3-bis(4-bromophenyl)-5-cyclopropyl-4-hydroxy-4-phenylimidazolidin-2-one]		< 1000
Cc1ccc(N2C(=O)N(c3ccc(C)cc3)C(O)(c3cccc(OC(F)(F)F)c3)C23COC3)cc1 (stereo not shown) [Compound 284, 8-hydroxy-5,7-di-p-tolyl-8-(3-(trifluoromethoxy)phenyl)-2-oxa-5,7-diazaspiro[3.4]octan-6-one]	< 1000	
Cc1cccc(C2(O)CN(c3ccc(Cl)cc3)C(=O)N2c2ccc(Cl)cc2)c1 (stereo not shown) [Example 34, 1,3-bis(4-chlorophenyl)-4-hydroxy-4-(m-tolyl)imidazolidin-2-one]		1000 to 10000
CC1N(c2ccccc2)C(=O)N(c2ccc(Br)cc2)C1(O)c1cccc(OC(F)(F)F)c1 (stereo not shown) [Example 229, 3-(4-bromophenyl)-4-hydroxy-5-methyl-1-phenyl-4-(3-(trifluoromethoxy)phenyl)imidazolidin-2-one]		< 1000
O=C1N(c2ccc(Cl)cc2)[C@H]([C@H]2CCCO2)C(O)(c2cccc(Cl)c2)N1c1ccc(Cl)cc1 (single isomer, unassigned) [Compound 117-2]		1000 to 10000
N#Cc1cccc(C2(O)[C@@H](CC3CC3)N(c3ccc(Cl)cc3)C(=O)N2c2ccc(Cl)cc2)c1 (single isomer, unassigned) [Compound 132-2]		< 1000
C[C@@H]1N(c2ccc(Br)cc2)C(=O)N(c2ccc(Br)cc2)C1(O)c1cccc(C(F)(F)F)c1 (stereo partly drawn) [Compound 74-1, (5S)-1,3-bis(4-bromophenyl)-4-hydroxy-5-methyl-4-(3-(trifluoromethyl)phenyl)imidazolidin-2-one]		< 1000
O=C1N(c2ccc(Cl)cc2)[C@H](c2ccccc2)[C@](O)(CO)N1c1ccc(Cl)cc1 [Example 218-1, (4S,5R)-1,3-bis(4-chlorophenyl)-4-hydroxy-4-(hydroxymethyl)-5-phenylimidazolidin-2-one]		10000 to 50000
CCCC1N(c2ccc(Br)cc2)C(=O)N(c2ccc(Br)cc2)C1(O)c1cccc(C)c1 (stereo not shown) [Compound 96, 1,3-bis(4-bromophenyl)-4-hydroxy-5-propyl-4-(m-tolyl)imidazolidin-2-one]		< 1000
O=C1N(c2ccc(Br)cc2)CC(O)(c2cccc(C(F)(F)F)c2)N1c1ccc(Br)cc1 (stereo not shown) [Example 31, 1,3-bis(4-bromophenyl)-4-hydroxy-4-(3-(trifluoromethyl)phenyl)imidazolidin-2-one]		< 1000
CN(C)CC1N(c2ccc(Cl)cc2)C(=O)N(c2ccc(Cl)cc2)C1(O)c1cccc(OC(F)(F)F)c1 (stereo not shown) [Example 166, 1,3-bis(4-chlorophenyl)-5-((dimethylamino)methyl)-4-hydroxy-4-(3-(trifluoromethoxy)phenyl)imidazolidin-2-one]		< 1000
CCC[C@@H]1N(c2ccc(Cl)cc2)C(=O)N(c2ccc(Cl)cc2)C1(O)c1cccc(C#N)c1 (single isomer, unassigned) [Compound 101-1]		< 1000
CCC1N(c2ccc(Br)cc2)C(=O)N(c2ccc(Br)cc2)C1(O)c1ccccc1 (stereo not shown) [Example 25, 1,3-bis(4-bromophenyl)-5-ethyl-4-hydroxy-4-phenylimidazolidin-2-one]		< 1000
Cc1ccc(N2C(=O)N(c3ccc(Cl)cc3)C3(COC3)C2(O)c2cccc(C#N)c2)cc1 (stereo not shown) [Compound 298, 3-(5-(4-chlorophenyl)-8-hydroxy-6-oxo-7-(p-tolyl)-2-oxa-5,7-diazaspiro[3.4]octan-8-yl)benzonitrile]	< 1000	
CC(C)C1(c2cccc(C#N)c2)C(O)N(c2ccc(Cl)cc2)C(=O)N1c1ccc(Cl)cc1 (stereo not shown) [Example 231, 3-(1,3-bis(4-chlorophenyl)-5-hydroxy-4-isopropyl-2-oxoimidazolidin-4-yl)benzonitrile]		1000 to 10000
CCc1c(-c2cccc(C#N)c2)n(-c2ccc(F)cc2)c(=O)n1-c1ccc(F)cc1 [Compound 252, 3-(5-ethyl-1,3-bis(4-fluorophenyl)-2-oxo-2,3-dihydro-1H-imidazol-4-yl)benzonitrile]		1000 to 10000
Cc1ccc(N2C(=O)N(c3ccc(C#N)cc3)C3(COC3)C2(O)c2cccc(C#N)c2)cc1 (stereo not shown) [Compound 278, 3-(5-(4-cyanophenyl)-8-hydroxy-6-oxo-7-(p-tolyl)-2-oxa-5,7-diazaspiro[3.4]octan-8-yl)benzonitrile]	< 1000	
O=C1N(c2ccc(Br)cc2)C(O)[C@@](c2ccccc2)(C2CC2)N1c1ccc(Br)cc1 (stereo partly drawn) [Example 209-1, (4S)-1,3-bis(4-bromophenyl)-4-cyclopropyl-5-hydroxy-4-phenylimidazolidin-2-one]		10000 to 50000
C[C@H]1N(c2ccc(Cl)cc2)C(=O)N(c2ccc(Cl)cc2)C1(O)c1cccc(Br)c1 (stereo partly drawn) [Compound 94-2, (5R)-4-(3-bromophenyl)-1,3-bis(4-chlorophenyl)-4-hydroxy-5-methylimidazolidin-2-one]		< 1000
O=C1N(c2ccc(Br)cc2)C(=O)C(O)(c2ccc(OC3CCCC3)cc2)N1c1ccc(Br)cc1 (stereo not shown) [Example 167, 1,3-bis(4-bromophenyl)-5-(4-(cyclopentyloxy)phenyl)-5-hydroxyimidazolidine-2,4-dione]		50000 to 100000
OC1(c2ccccc2)CN(c2ccc(Br)cc2)C(=S)N1c1ccc(Br)cc1 (stereo not shown) [Example 26, 1,3-bis(4-bromophenyl)-4-hydroxy-4-phenylimidazolidine-2-thione]		50000 to 100000
O=C1N(c2ccc(Cl)cc2)C(C2CC2)C(O)(c2cccc(OC(F)F)c2)N1c1ccc(Cl)cc1 (stereo not shown) [Compound 233, 1,3-bis(4-chlorophenyl)-5-cyclopropyl-4-(3-(difluoromethoxy)phenyl)-4-hydroxyimidazolidin-2-one]		< 1000
N#Cc1cccc(C2(O)[C@H](CC3CC3)N(c3ccc(Cl)cc3)C(=O)N2c2ccc(Cl)cc2)c1 (single isomer, unassigned) [Compound 132-1]		1000 to 10000
CC(C)C1(c2cccc(OC(F)(F)F)c2)C(O)N(c2ccc(Cl)cc2)C(=O)N1c1ccc(Cl)cc1 (stereo not shown) [Example 220, 1,3-bis(4-chlorophenyl)-5-hydroxy-4-isopropyl-4-(3-(trifluoromethoxy)phenyl)imidazolidin-2-one]		< 1000
CC1N(c2ccc(Cl)cc2)C(=O)N(c2ccc(Cl)cc2)C1(O)c1cccc(C(C)(C)O)c1 (stereo not shown) [Compound 140, 1,3-bis(4-chlorophenyl)-4-hydroxy-4-(3-(2-hydroxypropan-2-yl)phenyl)-5-methylimidazolidin-2-one]		1000 to 10000
C[C@H]1N(c2ccc(Br)cc2)C(=O)N(c2ccc(Br)cc2)C1(O)c1cccc(Cl)c1 (stereo partly drawn) [Compound 73-2, (5R)-1,3-bis(4-bromophenyl)-4-(3-chlorophenyl)-4-hydroxy-5-methylimidazolidin-2-one]		< 1000
